Like-named read-outs stand apart in the source and are kept apart here.
What was measured:
[1] = system: MYC protein expression in MCF-7 breast cancer cells; experiment: Western blotting of MYC protein level in MCF-7 cells; assay type: cell-based, human
How it was run: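 MCF-7 cells were exposed to compounds at 0.5, 1, 2 and 4 μM for 24 hours at 37° C. MYC was detected by immunoblot with ECL, using rabbit anti-MYC (1:1000) and anti-GAPDH (1:2000) as loading control.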

[2] = target: T1, human topoisomerase I (Homo sapiens, UniProt P11387); settings: relative topoisomerase I inhibition levels, previously determined, six levels (0 - 5, +++++ = 5); cited from earlier work
T1 sequence (P11387 1-765): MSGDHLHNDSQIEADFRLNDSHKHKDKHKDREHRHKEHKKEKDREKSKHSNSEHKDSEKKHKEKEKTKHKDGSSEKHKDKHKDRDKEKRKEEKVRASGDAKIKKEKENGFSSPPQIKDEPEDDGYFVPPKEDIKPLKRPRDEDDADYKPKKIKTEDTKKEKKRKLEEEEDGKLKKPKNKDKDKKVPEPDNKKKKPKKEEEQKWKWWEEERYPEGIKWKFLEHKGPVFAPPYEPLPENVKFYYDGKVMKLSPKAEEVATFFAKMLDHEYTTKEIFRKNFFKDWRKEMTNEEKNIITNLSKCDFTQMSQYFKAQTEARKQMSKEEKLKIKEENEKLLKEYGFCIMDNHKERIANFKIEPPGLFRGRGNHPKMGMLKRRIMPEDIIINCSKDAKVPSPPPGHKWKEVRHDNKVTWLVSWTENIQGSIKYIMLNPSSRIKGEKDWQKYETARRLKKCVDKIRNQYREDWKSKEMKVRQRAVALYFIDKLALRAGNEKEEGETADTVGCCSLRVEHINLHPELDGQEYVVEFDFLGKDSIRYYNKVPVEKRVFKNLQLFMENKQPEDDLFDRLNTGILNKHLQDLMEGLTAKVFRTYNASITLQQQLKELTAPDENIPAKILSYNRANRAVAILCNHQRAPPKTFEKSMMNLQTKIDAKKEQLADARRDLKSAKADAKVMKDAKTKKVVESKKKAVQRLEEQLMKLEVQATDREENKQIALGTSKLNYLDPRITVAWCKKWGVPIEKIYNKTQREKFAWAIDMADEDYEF

[3] = system: NCI-60 cancer cell lines; experiment: NCI-60 cancer cell line drug screen (GI50, MGM); assay type: cell-based, human; settings: for GI50: read-out: Antiproliferative Activities [GI50 (μM)]
Procedure: Cancer cells were incubated with the test compounds at five concentrations ranging from 100 μM to 10 nM for 48 h. […] The approximate average of GI50 values across the entire panel of NCI-60 cancer cell lines for each compound was recorded as the MGM value.

For COc1cnc2c(c1)C(=O)c1c-2n(CCCNC(C)C)c(=O)c2cc(F)ccc12 [Compound 5], the minimal effective concentration ([1]; Homo sapiens, MCF7, western blotting, MCF-7 cells, 0.5, 1, 2, and 4 μM, 24 hours, read-out: MYC Inhibition) is given as 0.5 to 1 µM, the “MYC-inhibitory effect (MYC protein, western blot)” value ([1]; MCF-7, 0.5, 1, 2, and 4 μM, 24 h) is given as “clear MYC-inhibitory effect” and the “Top1 Inhibiton” value [2] is given as “++ (medium inhibition, ++, MYC expression inhibited at 2.0 μM, or no clear dose-dependent MYC inhibition)”. For the same compound, the GI50 ([3]; Homo sapiens, 786-0, Renal Cancer, 786-0) was 0.12 µM, the GI50 ([3]; Homo sapiens, A498, Renal Cancer, A498) was 0.2 µM and the GI50 ([3]; Homo sapiens, A549, Non-Small Cell Lung Cancer, A549/ATCC) was 0.07 µM. It also gave a GI50 ([3]; Homo sapiens, ACHN, Renal Cancer, ACHN) of 0.06 µM, a GI50 ([3]; Homo sapiens, BT-549, Breast Cancer, BT-549) of 0.66 µM and a GI50 ([3]; Homo sapiens, CCRF-CEM, Leukemia, CCRF-CEM) of 0.11 µM. For the same compound, the GI50 ([3]; Homo sapiens, COLO 205, Colon Cancer, COLO 205) was 0.09 µM, the GI50 ([3]; Homo sapiens, DU-145, Prostate Cancer, DU-145) was 0.21 µM and the GI50 ([3]; Homo sapiens, EKVX, Non-Small Cell Lung Cancer, EKVX) was 0.3 µM. For the same compound, the GI50 ([3]; Homo sapiens, HCC 2998, Colon Cancer, HCC-2998) was 0.4 µM, the GI50 ([3]; Homo sapiens, HCT-15, Colon Cancer, HCT-15) was 0.16 µM and the GI50 ([3]; Homo sapiens, HCT-116, Colon Cancer, HCT-116) was 0.09 µM. The GI50 ([3]; Homo sapiens, HL-60, Leukemia, HL-60(TB)) was 0.16 µM, the GI50 ([3]; Homo sapiens, HOP-62, Non-Small Cell Lung Cancer, HOP-62) was 0.11 µM and the GI50 ([3]; Homo sapiens, HOP-92, Non-Small Cell Lung Cancer, HOP-92) was 0.28 µM. It also gave a GI50 ([3]; Homo sapiens, HT-29, Colon Cancer, HT29) of 0.07 µM, a GI50 ([3]; Homo sapiens, Hs-578T, Breast Cancer, HS 578T) of 0.75 µM and a GI50 ([3]; Homo sapiens, IGROV-1, Ovarian Cancer, IGROV1) of 0.21 µM. The GI50 ([3]; Homo sapiens, K562, Leukemia, K-562) was 0.13 µM, the GI50 ([3]; Homo sapiens, KM12, Colon Cancer, KM12) was 0.17 µM and the GI50 ([3]; Homo sapiens, LOX IMVI, Melanoma, LOX IMVI) was 0.11 µM. It also gave a GI50 ([3]; Homo sapiens, Leukemia, SR) of 0.08 µM, a GI50 ([3]; Homo sapiens, MCF7, Breast Cancer, MCF7) of 0.03 µM and a GI50 ([3]; Homo sapiens, MDA-MB-231, Breast Cancer, MDA-MB-231/ATCC) of 0.4 µM. The GI50 ([3]; Homo sapiens, MDA-MB-435, Melanoma, MDA-MB-435) was 0.31 µM, the GI50 ([3]; Homo sapiens, MDA-MB-468, Breast Cancer, MDA-MB-468) was 0.23 µM and the GI50 ([3]; Homo sapiens, MOLT-4, Leukemia, MOLT-4) was 0.04 µM. For the same compound, the GI50 ([3]; Homo sapiens, Malme-3M, Melanoma, MALME-3M) was 0.2 µM, the GI50 ([3]; Homo sapiens, Melanoma, M14) was 0.23 µM and the GI50 ([3]; Homo sapiens, NCI-H23, Non-Small Cell Lung Cancer, NCI-H23) was 0.18 µM. For the same compound, the GI50 ([3]; Homo sapiens, NCI-H226, Non-Small Cell Lung Cancer, NCI-H226) was 0.15 µM, the GI50 ([3]; Homo sapiens, NCI-H322M, Non-Small Cell Lung Cancer, NCI-H322M) was 0.32 µM and the GI50 ([3]; Homo sapiens, NCI-H460, Non-Small Cell Lung Cancer, NCI-H460) was 0.04 µM. For the same compound, the GI50 ([3]; Homo sapiens, NCI-H522, Non-Small Cell Lung Cancer, NCI-H522) was 0.04 µM, the GI50 ([3]; Homo sapiens, OVCAR-3, Ovarian Cancer, OVCAR-3) was 0.19 µM and the GI50 ([3]; Homo sapiens, OVCAR-4, Ovarian Cancer, OVCAR-4) was 0.3 µM. The GI50 ([3]; Homo sapiens, OVCAR-5, Ovarian Cancer, OVCAR-5) was 0.28 µM, the GI50 ([3]; Homo sapiens, OVCAR-8, Ovarian Cancer, OVCAR-8) was 0.14 µM and the GI50 ([3]; Homo sapiens, Ovarian Cancer, NCl/ADR-RES) was 0.23 µM. For the same compound, the GI50 ([3]; Homo sapiens, Prostate Cancer, PC-3) was 0.28 µM, the GI50 ([3]; Homo sapiens, RPMI-8226, Leukemia, RPMI-8226) was 0.15 µM and the GI50 ([3]; Homo sapiens, RXF 393, Renal Cancer, RXF 393) was 0.23 µM. For the same compound, the GI50 ([3]; Homo sapiens, Renal Cancer, U0-31) was 0.08 µM, the GI50 ([3]; Homo sapiens, SF-268, CNS Cancer, SF-268) was 0.21 µM and the GI50 ([3]; Homo sapiens, SF-295, CNS Cancer, SF-295) was 0.09 µM. It also gave a GI50 ([3]; Homo sapiens, SF-539, CNS Cancer, SF-539) of 0.25 µM, a GI50 ([3]; Homo sapiens, SK-MEL-2, Melanoma, SK-MEL-2) of 0.51 µM and a GI50 ([3]; Homo sapiens, SK-MEL-5, Melanoma, SK-MEL-5) of 0.16 µM. For the same compound, the GI50 ([3]; Homo sapiens, SK-MEL-28, Melanoma, SK-MEL-28) was 0.94 µM, the GI50 ([3]; Homo sapiens, SK-OV-3, Ovarian Cancer, SK-OV-3) was 0.22 µM and the GI50 ([3]; Homo sapiens, SN12C, Renal Cancer, SN12C) was 0.16 µM. The GI50 ([3]; Homo sapiens, SNB-19, CNS Cancer, SNB-19) was 0.18 µM, the GI50 ([3]; Homo sapiens, SNB-75, CNS Cancer, SNB-75) was 0.22 µM and the GI50 ([3]; Homo sapiens, SW-620, Colon Cancer, SW-620) was 0.12 µM. For the same compound, the GI50 ([3]; Homo sapiens, T47D, Breast Cancer, T-47D) was 0.08 µM, the GI50 ([3]; Homo sapiens, TK-10, Renal Cancer, TK-10) was 0.18 µM and the GI50 ([3]; Homo sapiens, U-251, CNS Cancer, U251) was 0.08 µM. The GI50 ([3]; Homo sapiens, UACC-62, Melanoma, UACC-62) was 0.27 µM, the GI50 ([3]; Homo sapiens, UACC-257, Melanoma, UACC-257) was 0.47 µM and the mean GI50 across NCI-60 panel (MGM) ([3]; Homo sapiens, average of GI50 values across the entire panel of NCI-60 cancer cell lines) was 165 nM. The “anticancer activity (GI50 profile) in words” value ([3]; NCI-60 panel) was “more potent anticancer activities compared to compounds 4 and 20”.
